Values after ≈ are worked out from the molar mass of the structure shown. Bridge positions count the residues as written; N and C are the ends. Square brackets hold non-standard residues; d marks the D form. Peptide text beside a SMILES is read from it. I, II: the chains in the order shown. Aoc = NCCCCCCCC(=O)O
How the values were obtained:
[1] = tested on: Staphylococcus aureus Newmann; assay type: cell-based; settings: S. aureus; average MIC with standard deviation, n = 10 assays
Experimental: (§1) Streptococcus mutans JM11 (spectinomycin resistant, UA140 background) was grown in Todd-Hewitt (TH) broth under anaerobic conditions (80% N2, 15% CO2, 5% H2) at 37° C. Merritt et al. (2005) J Microbiol Meth., 61: 161-170. All bacteria were grown overnight to an OD600 of 0.8-1.0 prior to appropriate dilution and antimicrobial testing.
(§2) Briefly, ˜1×10^5 cfu/mL bacteria were diluted in TH (S. mutans), or Mueller-Hinton (MH) broth (all other organisms) and distributed to 96-well plates. Serially-diluted (2-fold) peptides were then added and the plates incubated at 37° C. for 18-24 h. […] All experiments were conducted 10 times.

[2] = tested on: Klebsiella pneumoniae KAY 2026; assay type: cell-based; settings: K. pneumoniae; average MIC with standard deviation, n = 10 assays
Experimental: as §1, §2

S. mutans [3] = assay: Microbial population shift assay, mixed planktonic culture; assay type: cell-based, Streptococcus mutans; settings: 10 μM peptide, 24 h, detection limit 200 cfu/mL
Experimental: (§3) Peptide (10 μM) or mock-treatment (1×PBS) was then added and samples were incubated at 37° C. for 24 h under anaerobic conditions (80% N2, 15% CO2, 5% H2). […] Plates were then incubated 37° C. under aerobic conditions (TH plates were incubated anaerobically) and colonies counted after 24 h to determine survivors. […] Gram stains and direct microscopic observation (from select isolated colonies) were undertaken to confirm species identity (data not shown). The detection limit of the assay was 200 cfu/mL.
(§4) We hypothesized that potential MH-STAMP dual-functionality could affect a particular set of bacteria within a mixed population, thereby promoting the outgrowth of non-targeted organisms and “shifting” the constituent makeup. To examine this possibility, defined mixed populations of planktonic cells were treated continuously and the make-up of the community examined after 24 h.

E. coli [4] = assay: as above; assay type: cell-based, Escherichia coli; settings: 10 μM peptide, 24 h, detection limit 200 cfu/mL
Experimental: as §3, §4

P. aeruginosa [5] = assay: as above; assay type: cell-based, Pseudomonas aeruginosa; settings: 10 μM peptide, 24 h, detection limit 200 cfu/mL
Experimental: as §3, §4

S. epidermidis [6] = assay: as above; assay type: cell-based, Staphylococcus epidermidis; settings: 10 μM peptide, 24 h, detection limit 200 cfu/mL
Experimental: as §3, §4

S. mutans [7] = assay type: cell-based, Streptococcus mutans; settings: average MIC with standard deviation, n = 10 assays
Experimental: (§5) The active AMPs, STAMPs and the like can be identified and/or validated using an in vitro screening assay. Indeed, in many instances the AMPs and/or STAMPS described herein will be used in vitro as preservatives, topical antimicrobial treatments, and the like.
(§6) Typically, the in vitro antimicrobial activity of antimicrobial agents is tested using standard NCCLS bacterial inhibition assays, or MIC tests (see, National Committee on Clinical Laboratory Standards “Performance Standards for Antimicrobial Susceptibility Testing,” NCCLS Document M100-S5 Vol. 14, No. 16, December 1994; “Methods for dilution antimicrobial susceptibility test for bacteria that grow aerobically-Third Edition,” Approved Standard M7-A3, National Committee for Clinical Standards, Villanova, Pa.).
as §2

S. epidermidis [8] = settings: average MIC with standard deviation, n = 10 assays
Experimental: (§7) The active AMPs, STAMPs and the like can be identified and/or validated using an in vitro screening assay.
as §2, with “Peptides were evaluated for basic antimicrobial activity by broth microdilution, as described previously (Eckert et al. (2006) Antimicrob Agents Chemother., 50: 3651-3657; Eckert et al. (2006) Antimicrob Agents Chemother., 50: 1480-1488). Briefly,” for “Briefly,”

P. aeruginosa [9] = settings: average MIC with standard deviation, n = 10 assays
Experimental: as §7
as §2, with “Peptides were evaluated for basic antimicrobial activity by broth microdilution, as described previously (Eckert et al. (2006) Antimicrob Agents Chemother., 50: 3651-3657; Eckert et al. (2006) Antimicrob Agents Chemother., 50: 1480-1488). Briefly,” for “Briefly,”

E. coli [10] = assay type: cell-based, Escherichia coli; settings: average MIC with standard deviation, n = 10 assays
Experimental: as §5, §6, §2

S. mutans [11] = assay: Post-antibiotic effect assay, monoculture growth after 10 min treatment; assay type: cell-based, Streptococcus mutans; settings: peptide 10 min, then fresh medium
Experimental: The activity and selectivity of MH-STAMPs after a 10 min incubation was determined by growth retardation experiments against targeted and untargeted bacteria in monocultures, as described previously (Id.). Cells from overnight cultures were diluted to ˜5×10^6 cfu/mL in MH (or TH with 1% sucrose for S. mutans), normalized by OD600 0.05-0.1 and seeded to 96-well plates. Cultures were then grown under the appropriate conditions for 2 h (3 h for S. mutans) prior to the addition of peptides for 10 min. Plates were then centrifuged at 3000×g for 5 min, the supernatants discarded, fresh medium returned (MH or TH without sucrose for S. mutans), and incubation resumed. Bacterial growth after treatment was then monitored over time by OD600.
MH-STAMP antimicrobial kinetics was ascertained utilizing a variation of the classical post-antibiotic effect assay, which measures the ability of an agent to affect an organism's growth after a short exposure period. Monocultures of MH-STAMP-targeted and untargeted organisms were exposed to M8(KH)-20, M8(BL)-20, BL(KH)-20, or unmodified BD2.20, then allowed to recover. […] Furthermore, replacement of the targeting region with a non-binding peptide abolishes specific activity.

S. mutans UA140 biofilms = assay: Photodynamic antimicrobial assay against single-species biofilms; assay type: cell-based, Streptococcus mutans; settings: 5 μM, no light
Experimental: To evaluate C16-RB against monoculture biofilms, S. mutans UA140 was grown overnight in TH prior to inoculation for biofilm formation. For biofilms, 1:5000 dilution of overnight culture was made into TH with 1% sucrose in 2 mL centrifuge tubes (200 μL volume) and grown 24 h under anaerobic conditions. After incubation, biofilms were treated for 5 min with 5 or 25 μM C16-RB or 5 μM RB in 1×PBS, or PBS alone, followed by removal of supernatant and exposure to 5 min blue light (emission 400-550 nm, power 400 mW/cm^2) from an Astralis 7 (Ivoclar Vivodent, Austria) handheld LED commonly used as a dental curing light. The light source was suspended 4 cm from the tube bottom (even with the mouth of the tube). A duplicate set of samples were left covered to serve as dark controls. After treatment, biofilms were mechanically disrupted and plated to determine cfu/mL.
After synthesis, the basic photosensitization potential of C16-RB was assessed by challenging mature single-species S. mutans biofilms (grown 24 h) with C16-RB or unmodified RB, followed by blue emission from a dental curing light.

BHK-21 fibroblasts = assay: Cytotoxicity, Promega CellTiterGlo assay; assay type: cell-based, hamster; settings: BHK cells
Experimental: Streptococcus oralis ATCC 10557, Streptococcus gordonii (Challis), Streptococcus sanguinis (NY101), Streptococcus mitis ATCC 903, Streptococcus salivarius ATCC 13419 and S. mutans wild-type UA140 and JM11 (spectinomycin-resistant) strains were grown in Todd-Hewitt (TH) broth 37° C. in an anaerobic atmosphere of 80% N2, 10% CO2, and 10% H2. BHK-21 (ATCC CRL-10) fibroblasts were propagated in DMEM with 10% FBS, 1 mM sodium pyruvate, 100 units/mL penicillin G, and 100 μg/mL streptomycin at 37° C. with 5% CO2. Cells were detached with 0.25% trypsin and subcultured as recommended by the supplier.
The effect of RB and C16-RB on human fibroblasts was ascertained by utilizing the Promega CellTiterGlo assay, as described by the manufacturer. Briefly, fibroblasts were grown to confluence, detached, and seeded to ˜5,000 cells per well in a 96-well opaque walled, clear bottom 96-well plate (Nunc International). For long-term dark toxicity, cells were allowed to attach to for 18 h before the culture medium was replaced with medium plus serially-diluted RB or C16-RB (200 μM to 390 nM) or medium alone. After 18-24 h, equal volume Cell Titer Glo reagent was added to each well and mixed. Luciferace activity was then quantified to measure cell viability (Varian Fluorometer in Biolumenescence mode). […] After exposure, cultures were disrupted with Cell Titer Glo and luciferase activity quantitated as above.

[12] = tested on: S. mutans JM11 and non-cariogenic oral streptococci in mixed biofilms; assay: Selective photodynamic assay against multispecies biofilms; assay type: cell-based, Streptococcus mutans; settings: mixed biofilm, blue light, plus potassium gluconate
Experimental: To gauge C16-RB selectivity for S. mutans, similar assays were conducted against multispecies biofilms. Mixed biofilms were seeded by diluting (1:5000) a mixture of equal parts S. oralis, S. gordonii, S. mitis, S. sanguinis, S. salivarius, and S. mutans JM11 (made from overnight cultures) into TH with 1% sucrose, 1% glucose, and 1% mannose. Biofilms were incubated and treated as described above with the addition of vitamin C or potassium gluconate. After the addition of agent and 5 min incubation, biofilms were washed 1× with 1×PBS prior to light exposure. After PDT and biofilm disruption, survivors were plated on TH, and TH supplemented with 800 μg/mL spectinomycin, which allowed for quantitation of surviving total oral streptococci and surviving S. mutans, respectively.
C16-RB was next evaluated for selectivity in mixed cultures containing S. mutans and non-cariogenic oral streptococci that compete for the same niche on the tooth surface. We utilized mixed biofilms of S. mutans transformed with spectinomycin resistance (strain JM11, Merritt, et al., 2005), plus S. oxalis, S. gordonii, S. mitis, S. sanguinis, and S. salivarius. The mixed cultures were grown 24 and then treated with RB or C16-RB as indicated, plus potassium gluconate to minimize killing of untargeted bacteria by reducing the superoxide-producing activity of the free C16-RB not bound to S. mutans. […]

Compound | MIC [1] [µM] | MIC [2] [µM] | surviving S. mutans cfu/mL (S. mutans [3]) | surviving E. coli cfu/mL (E. coli [4]) | surviving P. aeruginosa cfu/mL (P. aeruginosa [5]) | surviving S. epidermidis cfu/mL (S. epidermidis [6]) | MIC (S. mutans [7]) [µM] | MIC (S. epidermidis [8]) [µM] | MIC (P. aeruginosa [9]) [µM] | MIC (E. coli [10]) [µM] | S. mutans growth (OD600) after treatment (S. mutans [11]) | decrease in cfu/mL, dark controls (S. mutans UA140 biofilms) | IC50 (BHK-21 fibroblasts; 5 min dark) [µM] | photo-associated (light-dependent) toxicity (BHK-21 fibroblasts; blue light exposure) | ratio of surviving S. mutans:non-cariogenic streptococci cfu [12]
CC[C@H](C)[C@H](NC(=O)[C@H](Cc1ccccc1)NC(=O)CCCCCCCNC(=O)[C@H](CCCCNC(=O)CNC(=O)CNC(=O)CNC(=O)[C@H](C)NC(=O)[C@H](CCC(=O)O)NC(=O)[C@H](CC(N)=O)NC(=O)[C@H](C)NC(=O)[C@H](C)NC(=O)[C@@H](N)CC(=O)O)NC(=O)CNC(=O)CNC(=O)CNC(=O)[C@H](CCCNC(=N)N)NC(=O)[C@H](CC(N)=O)NC(=O)[C@H](CC(C)C)NC(=O)[C@H](Cc1ccccc1)NC(=O)[C@H](CCCNC(=N)N)NC(=O)[C@H](Cc1ccccc1)NC(=O)[C@H](Cc1ccccc1)NC(=O)[C@@H](NC(C)=O)[C@@H](C)O)C(=O)N[C@@H](CCCNC(=N)N)C(=O)N[C@@H](CCCCN)C(=O)N[C@@H](Cc1ccccc1)C(=O)N[C@@H](CC(C)C)C(=O)N[C@@H](CCCCN)C(=O)N[C@@H](CCCCN)C(=O)N[C@@H](Cc1c[nH]c2ccccc12)C(=O)N[C@@H](CC(C)C)C(=O)N[C@@H](CC(C)C)C(N)=O [M8(BL)-20] (I: Ac-TFFRFLNRGGGK[Aoc]FIRKFLKKWLL-NH2 / II: H-DAANEAGGG; amide I:12-II:C) | 18.05 ± 6.58 (≈ 68.6 µg/mL) | 6.88 ± 1.98 (≈ 26.1 µg/mL) | greatly reduced compared to input cfu/mL | not affected or affected to a lesser extent | not affected or affected to a lesser extent | not affected or affected to a lesser extent | 6.25 (≈ 23.7 µg/mL) | 6.25 (≈ 23.7 µg/mL) | 50 (≈ 190 µg/mL) | 5.97 ± 0.94 (≈ 22.7 µg/mL) | effectively retarded | – | – | – | –
O=C1OC2(c3cc(I)c(O)c(I)c3Oc3c2cc(I)c(O)c3I)c2c(Cl)c(Cl)c(Cl)c(Cl)c21 [RB, rose bengal] | – | – | – | – | – | – | – | – | – | – | – | appreciable decreases in cfu/mL were not observed | > 100 | light-dependent toxicity was observed | ~1

Source: US9597407B2, “Targeted antimicrobial moieties” (C3 Jian, Inc., priority 2009, dated 2017)
